Experimental data published in PubChem BioAssay AID330 (DTP/NCI, 2004).
“And” between values parts separate entries of the source, which are not always exact repeats. Identical values can stand only once. Inconclusive results and toxic doses are left out.

System: P388 leukemia ip, CD2F1 mice, survival T/C
Assay: NCI In Vivo Anticancer Drug Screen. Data for tumor model P388 Leukemia (intraperitoneal) in CD2F1 (CDF1) mice
Settings: endpoint: median survival time, higher = longer survival
Outline: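 Mice carrying the transplanted tumor received test compound or vehicle. Survival was recorded in each group, and the value is the treated-group measurement divided by that of the vehicle-treated control group.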

[1] = dose: 60.0 mg/kg/injection, schedule: Q01DX005 (ip), vehicle: saline with Tween-80
[2] = dose: 120.0 mg/kg/injection, schedule: Q01DX005 (ip), vehicle: saline with Tween-80
[3] = dose: 12.5 mg/kg/injection, schedule: Q01DX009 (ip), vehicle: saline
[4] = dose: 25.0 mg/kg/injection, schedule: Q01DX009 (ip), vehicle: saline
[5] = dose: 50.0 mg/kg/injection, schedule: Q01DX009 (ip), vehicle: saline
[6] = dose: 50.0 mg/kg/injection, schedule: Q01DX005 (ip), vehicle: saline with Tween-80
[7] = dose: 100.0 mg/kg/injection, schedule: Q01DX005 (ip), vehicle: saline with Tween-80
[8] = dose: 200.0 mg/kg/injection, schedule: Q01DX005 (ip), vehicle: saline with Tween-80
[9] = dose: 60.0 mg/kg/injection, schedule: Q01DX005 (ip), vehicle: Klucel (hydroxypropylcellulose) (HPC)
[10] = dose: 120.0 mg/kg/injection, schedule: Q01DX005 (ip), vehicle: Klucel (hydroxypropylcellulose) (HPC)
[11] = dose: 240.0 mg/kg/injection, schedule: Q01DX005 (ip), vehicle: Klucel (hydroxypropylcellulose) (HPC)
[12] = dose: 6.25 mg/kg/injection, schedule: Q01DX005 (ip), vehicle: saline with Tween-80
[13] = dose: 12.5 mg/kg/injection, schedule: Q01DX005 (ip), vehicle: saline with Tween-80
[14] = dose: 25.0 mg/kg/injection, schedule: Q01DX005 (ip), vehicle: saline with Tween-80
[15] = dose: 3.12 mg/kg/injection, schedule: Q01DX009 (ip), vehicle: saline with Tween-80
[16] = dose: 100.0 mg/kg/injection, schedule: Q01DX009 (ip), vehicle: saline
[17] = dose: 50.0 mg/kg/injection, schedule: Q01DX009 (ip), vehicle: Klucel (hydroxypropylcellulose) (HPC)
[18] = dose: 100.0 mg/kg/injection, schedule: Q01DX009 (ip), vehicle: Klucel (hydroxypropylcellulose) (HPC)
[19] = dose: 200.0 mg/kg/injection, schedule: Q01DX009 (ip), vehicle: Klucel (hydroxypropylcellulose) (HPC)
[20] = dose: 200.0 mg/kg/injection, schedule: Q01DX009 (ip), vehicle: saline

O=c1oc(-c2ccc(Cl)cc2Cl)nc2cc(Cl)ccc12
T/C [1]: 104 % of control | T/C [2]: 112 % of control

CCCCCCCCC#CCO
T/C [1]: 86 % of control | T/C [2]: 86 % of control

CNC(=O)Nc1ccncc1
T/C [3]: 112 % of control | T/C [4]: 102 % of control | T/C [5]: 100 % of control

CCCC1(CCC)c2ccccc2C(Cl)(CCl)c2ccccc21
T/C (dose: 12.5 mg/kg/injection, schedule: Q01DX009 (ip), vehicle: other): 103 % of control | T/C (dose: 25.0 mg/kg/injection, schedule: Q01DX009 (ip), vehicle: other): 106 % of control | T/C (dose: 50.0 mg/kg/injection, schedule: Q01DX009 (ip), vehicle: other): 109 % of control | T/C (dose: 100.0 mg/kg/injection, schedule: Q01DX009 (ip), vehicle: other): 107 % of control | T/C (dose: 200.0 mg/kg/injection, schedule: Q01DX009 (ip), vehicle: other): 109 % of control

c1ccc(-c2cc3cc4c(cc3[nH]2)Sc2ccccc2O4)cc1
T/C (dose: 110.0 mg/kg/injection, schedule: Q01DX001 (ip), vehicle: Klucel (hydroxypropylcellulose) (HPC)): 97 % of control | T/C (dose: 220.0 mg/kg/injection, schedule: Q01DX001 (ip), vehicle: Klucel (hydroxypropylcellulose) (HPC)): 101 % of control | T/C (dose: 440.0 mg/kg/injection, schedule: Q01DX001 (ip), vehicle: Klucel (hydroxypropylcellulose) (HPC)): 99 % of control

CC(=O)Nc1ccc(Nc2cc(S(=O)(=O)O)c(N)c3c2C(=O)c2ccccc2C3=O)cc1
T/C (dose: 60.0 mg/kg/injection, schedule: Q01DX005 (ip), vehicle: saline): 92 % of control | T/C (dose: 120.0 mg/kg/injection, schedule: Q01DX005 (ip), vehicle: saline): 95 % of control | T/C (dose: 240.0 mg/kg/injection, schedule: Q01DX005 (ip), vehicle: saline): 92 % of control

CCC1(O)C[C@@]2(CCCCC2I)OC1=O (stereo partly drawn)
T/C [6]: 100 % of control | T/C [7]: 103 % of control | T/C [8]: 106 % of control

O=C1C2=C(Nc3cc([N+](=O)[O-])ccc3N2)OC1c1ccccc1Cl (stereo not drawn)
T/C [9]: 102 % of control | T/C [10]: 98 % of control | T/C [11]: 98 % of control

NC(N)=NCCC(Cl)C(=O)O (stereo not drawn)
T/C (dose: 50.0 mg/kg/injection, schedule: Q01DX005 (ip), vehicle: saline): 101 % of control | T/C (dose: 100.0 mg/kg/injection, schedule: Q01DX005 (ip), vehicle: saline): 102 % of control | T/C (dose: 200.0 mg/kg/injection, schedule: Q01DX005 (ip), vehicle: saline): 97 % of control

Nc1nc2nc[nH]c(=O)c2[nH]1
T/C [12]: 99 % of control | T/C [13]: 99 % of control | T/C [14]: 102 % of control and 106 % of control | T/C [6]: 102 % of control

CCCCCCCCCCCCS(=O)(=O)O
T/C [15]: 119 % of control | T/C (dose: 6.25 mg/kg/injection, schedule: Q01DX009 (ip), vehicle: saline with Tween-80): 111 % of control and 119 % of control | T/C (dose: 12.5 mg/kg/injection, schedule: Q01DX009 (ip), vehicle: saline with Tween-80): 110 % of control and 112 % of control

COc1ccc2[nH]c3c(C)c4ccn5c(=O)c6ccccc6cc5c4c(C)c3c2c1
T/C (dose: 0.1 mg/kg/injection, schedule: Q04DX003 (ip), vehicle: distilled water + Tween-80): 87 % of control | T/C (dose: 0.2 mg/kg/injection, schedule: Q04DX003 (ip), vehicle: distilled water + Tween-80): 100 % of control | T/C (dose: 0.4 mg/kg/injection, schedule: Q04DX003 (ip), vehicle: distilled water + Tween-80): 91 % of control | T/C (dose: 0.78 mg/kg/injection, schedule: Q04DX003 (ip), vehicle: distilled water + Tween-80): 87 % of control | T/C (dose: 0.8 mg/kg/injection, schedule: Q04DX003 (ip), vehicle: distilled water + Tween-80): 92 % of control | T/C (dose: 200.0 mg/kg/injection, schedule: Q04DX003 (ip), vehicle: distilled water + Tween-80): 91 % of control

CCOC(=O)C(C)NO (stereo not drawn)
T/C [5]: 97 % of control | T/C [16]: 94 % of control

C=Cn1ccnc1
T/C (dose: 6.25 mg/kg/injection, schedule: Q01DX009 (ip), vehicle: saline): 100 % of control | T/C [3]: 103 % of control and 123 % of control | T/C [4]: 103 % of control | T/C [5]: 108 % of control and 113 % of control and 114 % of control | T/C [16]: 91 % of control

CC(=O)OCCCn1nc(COC(N)=O)c2c1CC(C)CC2=O (stereo not drawn)
T/C [9]: 101 % of control | T/C [10]: 99 % of control | T/C [11]: 100 % of control

O=c1oc2ccc3ccccc3c2cc1-n1nnc2ccccc21
T/C [1]: 91 % of control | T/C [2]: 90 % of control

CCOC(=O)c1c(C)[nH]c(-c2ccccc2)c1NS(=O)(=O)c1ccc(NC(C)=O)cc1
T/C [1]: 106 % of control | T/C [2]: 93 % of control | T/C (dose: 240.0 mg/kg/injection, schedule: Q01DX005 (ip), vehicle: saline with Tween-80): 99 % of control

Cc1ccc(CN2CC(=O)N3Cc4ccccc4CN3C(=O)C2)cc1
T/C [6]: 103 % of control | T/C [7]: 116 % of control | T/C [8]: 98 % of control

CCCCNc1ccc(-c2c(N)nc(N)nc2CC)cc1N
T/C (dose: 100.0 mg/kg/injection, schedule: Q01DX001 (ip), vehicle: Klucel (hydroxypropylcellulose) (HPC)): 101 % of control | T/C (dose: 200.0 mg/kg/injection, schedule: Q01DX001 (ip), vehicle: Klucel (hydroxypropylcellulose) (HPC)): 93 % of control | T/C (dose: 400.0 mg/kg/injection, schedule: Q01DX001 (ip), vehicle: Klucel (hydroxypropylcellulose) (HPC)): 94 % of control

O=[N+]([O-])c1ccc(Sc2ccccn2)nc1Sc1ccccn1
T/C (dose: 0.79 mg/kg/injection, schedule: Q01DX009 (ip), vehicle: saline with Tween-80): 100 % of control | T/C (dose: 1.56 mg/kg/injection, schedule: Q01DX009 (ip), vehicle: saline with Tween-80): 104 % of control | T/C [15]: 100 % of control | T/C (dose: 200.0 mg/kg/injection, schedule: Q01DX009 (ip), vehicle: saline with Tween-80): 92 % of control

O=c1oc2c(c(=O)n1-c1ccccc1)CC1(CCCCC1)C2
T/C [17]: 103 % of control | T/C [18]: 113 % of control | T/C [19]: 105 % of control

CCOC(=O)/C=C1/SC(N2CCCCC2)C(=O)N1CC (stereo not drawn)
T/C [17]: 106 % of control | T/C [18]: 110 % of control | T/C [19]: 110 % of control

CCn1ccc(NS(=O)(=O)c2ccc(N)cc2)nc1=O
T/C (dose: 50.0 mg/kg/injection, schedule: Q01DX005 (ip), vehicle: Klucel (hydroxypropylcellulose) (HPC)): 98 % of control | T/C (dose: 100.0 mg/kg/injection, schedule: Q01DX005 (ip), vehicle: Klucel (hydroxypropylcellulose) (HPC)): 105 % of control | T/C (dose: 200.0 mg/kg/injection, schedule: Q01DX005 (ip), vehicle: Klucel (hydroxypropylcellulose) (HPC)): 100 % of control

CCCCCCCCN(CCCCCCCC)C(=N)c1ccnc2ccccc12
T/C [12]: 101 % of control | T/C [13]: 101 % of control | T/C [14]: 97 % of control | T/C [6]: 96 % of control

OCC1(CO)COC2(CCCCC2)N1
T/C [5]: 107 % of control | T/C [16]: 101 % of control and 120 % of control | T/C [20]: 100 % of control and 124 % of control

CCS(=O)(=O)OCCCNCCCOS(=O)(=O)CC
T/C (dose: 12.5 mg/kg/injection, schedule: Q01DX001 (ip), vehicle: saline): 124 % of control | T/C (dose: 12.5 mg/kg/injection, schedule: Q04DX003 (ip), vehicle: saline): 154 % of control | T/C (dose: 25.0 mg/kg/injection, schedule: Q01DX001 (ip), vehicle: saline): 86 % of control | T/C [4]: 215 % of control | T/C (dose: 25.0 mg/kg/injection, schedule: Q04DX003 (ip), vehicle: saline): 160 % of control | T/C [17]: 201 % of control | T/C [5]: 268 % of control | T/C (dose: 50.0 mg/kg/injection, schedule: Q04DX003 (ip), vehicle: saline): 193 % of control | T/C (dose: 100.0 mg/kg/injection, schedule: Q01DX001 (ip), vehicle: saline): 156 % of control | T/C [18]: 199 % of control | T/C [16]: 277 % of control | T/C (dose: 100.0 mg/kg/injection, schedule: Q04DX003 (ip), vehicle: saline): 209 % of control | T/C (dose: 200.0 mg/kg/injection, schedule: Q01DX001 (ip), vehicle: saline): 173 % of control | T/C [19]: 94 % of control | T/C [20]: 175 % of control | T/C (dose: 200.0 mg/kg/injection, schedule: Q04DX003 (ip), vehicle: saline): 272 % of control | T/C (dose: 400.0 mg/kg/injection, schedule: Q01DX001 (ip), vehicle: saline): 181 % of control
